Here are results for 1 compound from ChEMBL document CHEMBL5338706, “Discovery of a potent and selective proteolysis targeting chimera (PROTAC) degrader of NSD3 histone methyltransferase” (Eur J Med Chem, 2022).

Test [1] deals with T1, Histone-lysine N-methyltransferase NSD3 (Homo sapiens) (UniProt Q9BZ95).
T1 sequence (whole entry): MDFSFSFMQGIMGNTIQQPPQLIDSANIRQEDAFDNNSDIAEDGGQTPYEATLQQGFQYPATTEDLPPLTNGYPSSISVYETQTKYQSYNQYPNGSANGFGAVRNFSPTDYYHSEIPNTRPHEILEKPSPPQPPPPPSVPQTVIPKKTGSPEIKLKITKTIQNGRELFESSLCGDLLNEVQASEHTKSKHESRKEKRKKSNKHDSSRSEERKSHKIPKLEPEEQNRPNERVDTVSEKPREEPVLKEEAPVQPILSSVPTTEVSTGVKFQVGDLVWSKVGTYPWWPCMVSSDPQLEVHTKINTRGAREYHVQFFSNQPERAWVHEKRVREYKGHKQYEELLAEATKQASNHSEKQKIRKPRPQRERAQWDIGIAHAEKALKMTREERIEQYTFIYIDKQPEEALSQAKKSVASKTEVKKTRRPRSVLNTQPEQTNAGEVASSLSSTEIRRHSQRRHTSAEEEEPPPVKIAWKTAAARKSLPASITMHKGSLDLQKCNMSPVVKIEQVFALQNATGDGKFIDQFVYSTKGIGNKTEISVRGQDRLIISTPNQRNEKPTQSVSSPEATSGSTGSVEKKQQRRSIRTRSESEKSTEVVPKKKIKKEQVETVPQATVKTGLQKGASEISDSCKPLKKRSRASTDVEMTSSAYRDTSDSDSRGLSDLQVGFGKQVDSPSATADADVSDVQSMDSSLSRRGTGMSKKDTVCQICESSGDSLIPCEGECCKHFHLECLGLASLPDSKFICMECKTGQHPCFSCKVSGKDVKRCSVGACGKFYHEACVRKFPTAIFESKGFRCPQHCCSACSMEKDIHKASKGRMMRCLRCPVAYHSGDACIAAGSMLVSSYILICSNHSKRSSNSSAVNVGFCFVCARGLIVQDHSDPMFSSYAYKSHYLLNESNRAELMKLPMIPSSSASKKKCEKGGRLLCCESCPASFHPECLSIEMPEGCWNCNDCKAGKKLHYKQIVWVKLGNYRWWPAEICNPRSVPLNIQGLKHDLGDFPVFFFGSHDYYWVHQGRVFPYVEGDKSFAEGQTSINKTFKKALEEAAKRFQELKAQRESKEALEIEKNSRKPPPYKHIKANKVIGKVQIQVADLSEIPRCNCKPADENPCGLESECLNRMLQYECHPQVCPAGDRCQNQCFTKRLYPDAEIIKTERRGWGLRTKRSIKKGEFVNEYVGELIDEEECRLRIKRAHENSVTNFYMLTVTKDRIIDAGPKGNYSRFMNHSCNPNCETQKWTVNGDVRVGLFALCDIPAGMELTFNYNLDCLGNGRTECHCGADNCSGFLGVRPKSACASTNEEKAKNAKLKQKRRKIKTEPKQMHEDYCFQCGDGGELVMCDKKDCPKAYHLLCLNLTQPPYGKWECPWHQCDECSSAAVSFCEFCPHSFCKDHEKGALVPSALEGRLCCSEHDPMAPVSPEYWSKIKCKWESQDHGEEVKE
The test can be described thus: Induction of NSD3 degradation in human NCI-H1703 cells at 5 uM incubated for 72 hrs by Western blot analysis. Format: cell-based.

In test [2] the target is T1, Histone-lysine N-methyltransferase NSD3 (Homo sapiens). Kind of test: Induction of NSD3 degradation in human NCI-H1703 cells at 5 uM measured after 48 hrs by Western blot analysis relative to control. Type of test: cell-based. In general terms: Immunoblotting shows a protein as a band on a membrane.
For test [3] the target is unchanged. Kind of test: Induction of NSD3 degradation in human NCI-H1703 cells at […] incubated for 48 hrs in presence of MG132 by Western blot analysis. Format: cell-based. To be noted: dose 7.5 µM.
In test [4] the test system is NCI-H1703. The test can be described thus: Downregulation of IGFBP3 in human NCI-H1703 cells at […] measured after 72 hrs by RNA sequencing assay. Type of test: functional, cell-based. The following applies: dose 7.5 µM.
Test [5] has as its system NCI-H1703. The test can be described thus: Induction of cell cycle arrest in human NCI-H1703 cells assessed as increase accumulation of cells at G2/M phase at […] incubated for 48 hrs by propidium iodide staining based analysis. Format: functional. To be noted: dose 7.5 µM.
The subject of test [6] is NCI-H1703. The test can be described thus: Induction of apoptosis in human NCI-H1703 cells assessed as decrease in Bcl-XL protein expression at 5 to 10 uM by Western blot analysis. Type of test: functional, cell-based. To be noted: dose 5-10 µM.
Test [7] deals with NCI-H1703. The test can be described thus: Induction of apoptosis in human NCI-H1703 cells assessed as viable cells at 3 uM measured after 72 hrs by PI/Annexin-V staining based flow cytometry analysis (reference value: 92.7% ). Format: functional. To be noted: read-out: Activity. For orientation: In flow cytometry, cells or beads pass a laser one at a time.
Test [8] deals with NCI-H1703. Kind of test: Induction of apoptosis in human NCI-H1703 cells assessed as viable cells at 5 uM measured after 72 hrs by PI/Annexin-V staining based flow cytometry analysis (reference value: 92.7% ). Format: functional. To be noted: read-out: Activity.
In test [9] the test system is NCI-H1703. The test can be described thus: Induction of apoptosis in human NCI-H1703 cells assessed as late apoptotic cells at 5 uM measured after 72 hrs by PI/Annexin-V staining based flow cytometry analysis (reference value: 3.00% ). Type of test: functional.
The subject of test [10] is NCI-H1703. The test can be described thus: Induction of apoptosis in human NCI-H1703 cells assessed as late apoptotic cells at […] measured after 72 hrs by PI/Annexin-V staining based flow cytometry analysis (reference value: 3.00% ). Type of test: functional. The following applies: dose 7.5 µM.
Test [11] can be described thus: Downregulation of NSD3 level in human NCI-H1703 cells at […] by measuring fold change by Western blot analysis relative to control. Format: functional. To be noted: dose 7.5 µM.
Test [12] can be described thus: Downregulation of CDC25A level in human NCI-H1703 cells at 3 uM by measuring fold change by Western blot analysis relative to control. Type of test: functional.
Test [13] is described as follows: Downregulation of Cyclin D1 level in human NCI-H1703 cells at 5 uM by measuring fold change by Western blot analysis relative to control. Type of test: functional.
A short description of test [14]: Downregulation of NSD3 level in human NCI-H520 cells at 3 uM by measuring fold change by Western blot analysis relative to control. Type of test: functional.
Test [15] in a line: Downregulation of NSD3 level in human NCI-H520 cells at […] by measuring fold change by Western blot analysis relative to control. Type of test: functional. To be noted: dose 7.5 µM.
Test [16] is described as follows: Downregulation of CDC25A level in human NCI-H520 cells at […] by measuring fold change by Western blot analysis relative to control. The following applies: dose 7.5 µM. Type of test: functional.
Test [17] in a line: Downregulation of c-Myc level in human NCI-H520 cells at […] by measuring fold change by Western blot analysis relative to control. Type of test: functional. The following applies: dose 7.5 µM.
For test [18], the system named is NCI-H1703. Kind of test: Induction of apoptosis in human NCI-H1703 cells assessed as decrease in MCL-1 protein expression at […] by measuring fold change by Western blot analysis relative to control. Type of test: functional. To be noted: dose 7.5 µM.
Test [19] deals with NCI-H1703. Kind of test: Induction of apoptosis in human NCI-H1703 cells assessed as decrease in Bcl-XL protein expression at 5 uM by measuring fold change by Western blot analysis relative to control. Format: functional.
In test [20] the test system is NCI-H520. Kind of test: Induction of apoptosis in human NCI-H520 cells assessed as decrease in Bcl-XL protein expression at […] by measuring fold change by Western blot analysis relative to control. Format: functional. To be noted: dose 7.5 µM.
The test system of test [21] is NCI-H520. The test can be described thus: Induction of apoptosis in human NCI-H520 cells assessed as decrease in Bcl-XL protein expression at 10 uM by measuring fold change by Western blot analysis relative to control. Format: functional.

The structures appear in SMILES notation. The source made the active and inactive calls. No cut-off for these calls is given here.

As for `Cc1cc(CNCCCCCCCCCCC(=O)N[C@H](C(=O)N2C[C@H](O)C[C@H]2C(=O)N[C@@H](C)c2ccc(-c3scnc3C)cc2)C(C)(C)C)cc(C)c1-c1ncn(C)c1-c1ccnc2cc(F)ccc12`, the NSD3 degradation in [1] turned out to be 58.9%. In addition, the figures for the Activity (in test [2]; in the test with NCI-H1703 [9]; in the test on NCI-H1703 [10]) were 60%, 6.08% and 26.6%, respectively. In addition, in [3], the outcome was inactive. Besides, the result with NCI-H1703 [4], in the test on NCI-H1703 [5] and in the test with NCI-H1703 [6] was Active. In addition, in the test with NCI-H1703 [7], the viability at 3 µM worked out at 94.2%. Further, the viability at 5 µM in the test on NCI-H1703 [8] turned out to be 81.2%. The “fold change (FC)” value was 0.66 in [11]; 0.81 in test [12]; 0.69 in test [13]; 0.67 in [14]; 0.61 in test [15]; 0.6 in test [16]. Further, the “fold change (FC)” value in test [17] came out at 0.78; in the test on NCI-H1703 [18] it was 0.54; in the test with NCI-H1703 [19] it was 1.1; in the test on NCI-H520 [20] it was 0.8; in the test on NCI-H520 [21] it was 0.89.
